As a reminder, the IC50 is the midpoint of a concentration-inhibition curve. Lower therefore signals greater potency.

Where only a bound is given, the exact number is not on record here.

Here are results for 18 compounds from patent US20240246967A1, “AXL COMPOUNDS” (ARCUS BIOSCIENCES, INC., priority 2021, published 2024).

For the experiment, the target named is T1, human MER (Homo sapiens, UniProt Q12866).
T1 construct: purchased Invitrogen
T1 sequence (Q12866 21-999): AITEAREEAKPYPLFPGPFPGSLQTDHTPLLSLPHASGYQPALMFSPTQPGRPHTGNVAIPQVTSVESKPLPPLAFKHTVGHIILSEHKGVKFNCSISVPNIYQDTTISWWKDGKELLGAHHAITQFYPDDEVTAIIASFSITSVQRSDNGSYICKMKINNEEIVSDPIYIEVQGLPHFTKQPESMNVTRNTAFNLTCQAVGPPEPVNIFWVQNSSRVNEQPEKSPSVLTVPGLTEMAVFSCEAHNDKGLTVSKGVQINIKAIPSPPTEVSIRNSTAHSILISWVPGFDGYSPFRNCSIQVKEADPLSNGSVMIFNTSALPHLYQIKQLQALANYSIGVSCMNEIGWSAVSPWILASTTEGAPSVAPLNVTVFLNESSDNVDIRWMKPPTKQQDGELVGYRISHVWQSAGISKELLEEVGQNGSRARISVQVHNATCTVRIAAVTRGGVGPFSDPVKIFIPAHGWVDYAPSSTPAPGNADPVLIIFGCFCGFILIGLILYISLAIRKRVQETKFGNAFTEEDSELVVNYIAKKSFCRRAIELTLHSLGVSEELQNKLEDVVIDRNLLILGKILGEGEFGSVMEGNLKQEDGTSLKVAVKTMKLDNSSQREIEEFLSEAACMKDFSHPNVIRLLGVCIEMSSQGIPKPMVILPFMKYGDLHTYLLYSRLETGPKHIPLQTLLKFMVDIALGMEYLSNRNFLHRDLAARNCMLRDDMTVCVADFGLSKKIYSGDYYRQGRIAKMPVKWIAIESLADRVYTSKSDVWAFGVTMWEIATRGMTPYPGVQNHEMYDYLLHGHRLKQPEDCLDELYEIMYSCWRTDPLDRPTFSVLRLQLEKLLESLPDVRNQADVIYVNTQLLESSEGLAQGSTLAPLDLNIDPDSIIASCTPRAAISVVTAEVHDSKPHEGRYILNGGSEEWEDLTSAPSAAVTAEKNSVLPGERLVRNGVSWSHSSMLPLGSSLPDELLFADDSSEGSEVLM
Nature of the experiment: HTRF KinEASE-TK biochemical potency assay, MER. To be noted: 1 nM MER, 700 μM ATP, 800 nM TK Substrate-biotin. As to the method:
Purified recombinant human AXL, TYRO3 and MER proteins were purchased from Invitrogen™. 10 nM AXL, 2 nM TYRO3 or MER were incubated with varying concentrations of compounds in 50 mM HEPES, pH 7.4, 10 mM MgCl2, 0.01% BSA, 1 mM DTT and 2% DMSO in a total volume of 20 μl in a 384-well microplate (Corning™ #3640) at RT for 1 h. The AXL, TYRO3 and MER enzymatic reaction was initiated by transferring 10 μl of enzyme and compound mixture into 10 μl of 1.6 μM TK Substrate-biotin (HTRF® KinEASE-TK kit, Cisbio) and 1400 μM ATP pre-incubated in 50 mM HEPES, pH 7.4, 10 mM MgCl2, 0.01% BSA, 1 mM DTT in a 384-well microplate (Corning™ #3640) at RT, giving the final reaction conditions: 5 nM AXL, 1 nM TYRO3 or MER, 800 nM TK Substrate-biotin and 700 μM ATP in 50 mM HEPES, pH 7.4, 10 mM MgCl2, 0.01% BSA, 1 mM DTT and 1% DMSO with varying concentrations of compounds. Following 2 h incubation at RT, the AXL, TYRO3 and MER enzymatic reaction was stopped by transfer of 10 μl of reaction into 10 μl of detection mix (400 nM Streptavidin-XL665, 200-fold dilution TK Antibody-Cryptate and detection buffer, HTRF® KinEASE-TK kit, Cisbio) in a white 384-well microplate (Perkin Elmer, OptiPlate 384). After 1 h incubation at RT, the plate was put into a plate reader (Evision) to read at 665/620 nm (acceptor/donor) for HTRF. The value of the DMSO blank (MIN inhibition=100% activity) was used as a negative control. The positive control was established by adding 5 μl of enzyme and DMSO mixture into 10 μl of detection mix followed by addition of 5 μl of TK Substrate-biotin and ATP mixture (MAX inhibition=0% activity). To calculate the percent activity, Equation 1 was used. Ratio 665/620 is the value at a given compound concentration: […]
In general terms: Time-resolved FRET reads energy transfer from a long-lived donor to a nearby acceptor.
In turn, `C[C@@H]1CCCN1C1CCc2ccc(-c3cnc4[nH]nc(-c5ccc(C6(O)CCC6)c(Cl)c5)c4c3)cc2CC1` (stereo partly drawn) [Example 62, 1-[2-Chloro-4-(5-{7-[(2R)-2-methylpyrrolidin-1-yl]-6,7,8,9-tetrahydro-5H-benzo[7]annulen-2-yl}-1H-pyrazolo[3,4-b]pyridin-3-yl)phenyl]cyclobutan-1-ol] displayed a half-maximal inhibitory concentration (IC50) of 100 to 1000 nM.

Regarding `C[C@@H]1CCCN1C1(C)CCc2ccc(-c3cnc4[nH]nc(-c5ccc(C(C)(C)O)nc5)c4c3)cc2CC1` (stereo partly drawn) [Example 22, 2-[5-(5-{7-Methyl-7-[(2R)-2-methylpyrrolidin-1-yl]-6,7,8,9-tetrahydro-5H-benzo[7]annulen-2-yl}-1H-pyrazolo[3,4-b]pyridin-3-yl)pyridin-2-yl]propan-2-ol], the IC50 lay within 100 to 1000 nM.

Compound `C[C@@H]1CCCN1C1(C)CCc2ccc(-c3cnc4[nH]nc(-c5ccc(S(=O)(=O)C(F)(F)F)cc5)c4c3)cc2CC1` (stereo partly drawn) [Example 8, (2R)-2-Methyl-1-{7-methyl-2-[3-(4-trifluoromethanesulfonylphenyl)-1H-pyrazolo[3,4-b]pyridin-5-yl]-6,7,8,9-tetrahydro-5H-benzo[7]annulen-7-yl}pyrrolidine] returned a concentration for half-maximal inhibition (IC50) of over 1000 nM.

Regarding `C[C@@H]1CCCN1C1(C)CCc2ccc(-c3cnc4[nH]nc(-c5ccc(S(=O)(=O)C6CCC6)cc5)c4c3)cc2CC1` (stereo partly drawn) [Example 46, 3-(4-(Cyclobutylsulfonyl)phenyl)-5-(7-methyl-7-((R)-2-methylpyrrolidin-1-yl)-6,7,8,9-tetrahydro-5H-benzo[7]annulen-2-yl)-1H-pyrazolo[3,4-b]pyridine], the half-maximal inhibitory concentration (IC50) fell in the range of 100 to 1000 nM.

`FC1CN(c2ccc(-c3c[nH]c4ncc(-c5ccc6c(c5)CC[C@@H](N5C7COCC5C7)CC6)cc34)cc2)C1` [Example 127, 6-[(7S)-2-{3-[4-(3-fluoroazetidin-1-yl)phenyl]-1H-pyrrolo[2,3-b]pyridin-5-yl}-6,7,8,9-tetrahydro-5H-benzo[7]annulen-7-yl]-3-oxa-6-azabicyclo[3.1.1]heptane]: the concentration for half-maximal inhibition (IC50) is over 1000 nM.

For the compound `CC(C)(O)c1ccc(-c2n[nH]c3ncc(-c4ccc5c(c4)CCC(N4CCCC4)CC5)cc23)cc1Cl` (stereo not drawn) [Example 11, 2-(2-Chloro-4-{5-[7-(pyrrolidin-1-yl)-6,7,8,9-tetrahydro-5H-benzo[7]annulen-2-yl]-1H-pyrazolo[3,4-b]pyridin-3-yl}phenyl)propan-2-ol], the 50% inhibitory concentration (IC50) was in the range of 100 to 1000 nM.

`C[C@H]1CCCN1C1CCc2ccc(-c3cnc4[nH]nc(-c5ccc(C(C)(C)O)c(Cl)c5)c4c3)cc2CC1` (stereo partly drawn) [Example 37, 2-(2-Chloro-4-(5-(7-((S)-2-methylpyrrolidin-1-yl)-6,7,8,9-tetrahydro-5H-benzo[7]annulen-2-yl)-1H-pyrazolo[3,4-b]pyridin-3-yl)phenyl)propan-2-ol]: the IC50 is 100 to 1000 nM.

Regarding `CC(C)(O)c1ccc(-c2n[nH]c3ncc(-c4ccc5c(c4)CCN(C4CCCC4)CC5)cc23)c(F)c1` [Example 17, 2-{4-[5-(3-Cyclopentyl-2,3,4,5-tetrahydro-1H-3-benzazepin-7-yl)-1H-pyrazolo[3,4-b]pyridin-3-yl]-3-fluorophenyl}propan-2-ol], the IC50 was over 1000 nM.

Compound `CC(C)(O)c1ccc(-c2n[nH]c3ncc(-c4ccc5c(c4)CCC(N4CCCC4)CC5)cc23)cn1` (stereo not drawn) [Example 9, 2-(5-{5-[7-(Pyrrolidin-1-yl)-6,7,8,9-tetrahydro-5H-benzo[7]annulen-2-yl]-1H-pyrazolo[3,4-b]pyridin-3-yl}pyridin-2-yl)propan-2-ol] showed an IC50 of 100 to 1000 nM.

The compound `CC1(N2CCC[C@H]2CO)CCc2ccc(-c3cnc4[nH]nc(-c5ccc(S(=O)(=O)C6CC6)cc5)c4c3)cc2CC1` (stereo partly drawn) [Example 4, [(2S)-1-(2-{3-[4-(Cyclopropanesulfonyl)phenyl]-1H-pyrazolo[3,4-b]pyridin-5-yl}-7-methyl-6,7,8,9-tetrahydro-5H-benzo[7]annulen-7-yl)pyrrolidin-2-yl]methanol] yielded a half-inhibitory concentration (IC50) of 100 to 1000 nM.

In the case of `COC1CCN(S(=O)(=O)c2ccc(-c3n[nH]c4ncc(-c5ccc6c(c5)CCC(C)(N5CCC[C@H]5C)CC6)cc34)cc2)CC1` (stereo partly drawn) [Example 103, 3-(4-((4-Methoxypiperidin-1-yl)sulfonyl)phenyl)-5-(7-methyl-7-((R)-2-methylpyrrolidin-1-yl)-6,7,8,9-tetrahydro-5H-benzo[7]annulen-2-yl)-1H-pyrazolo[3,4-b]pyridine], the IC50 is over 1000 nM.

As for `C[C@H]1CCCN1C1(C)CCc2ccc(-c3cnc4[nH]nc(-c5ccc(C(C)(C)O)c(Cl)c5)c4c3)cc2CC1` (stereo partly drawn) [Example 58, 2-[2-Chloro-4-(5-{7-methyl-7-[(2S)-2-methylpyrrolidin-1-yl]-6,7,8,9-tetrahydro-5H-benzo[7]annulen-2-yl}-1H-pyrazolo[3,4-b]pyridin-3-yl)phenyl]propan-2-ol], the IC50 was in the range of 100 to 1000 nM.

For the compound `C[C@@H]1CCCN1C1CCc2ccc(-c3cnc4[nH]nc(-c5ccc(C(C)(C)O)c(C(F)(F)F)c5)c4c3)cc2CC1` (stereo partly drawn) [Example 20, 2-[4-(5-{7-[(2R)-2-Methylpyrrolidin-1-yl]-6,7,8,9-tetrahydro-5H-benzo[7]annulen-2-yl}-1H-pyrazolo[3,4-b]pyridin-3-yl)-2-(trifluoromethyl)phenyl]propan-2-ol], the IC50 lay within 100 to 1000 nM.

On to `C[C@@H]1CCCN1C1(C)CCc2ccc(-c3cnc4[nH]nc(-c5ccc(C(N)=O)c(F)c5)c4c3)cc2CC1` (stereo partly drawn) [Example 52, 2-Fluoro-4-(5-(7-methyl-7-((R)-2-methylpyrrolidin-1-yl)-6,7,8,9-tetrahydro-5H-benzo[7]annulen-2-yl)-1H-pyrazolo[3,4-b]pyridin-3-yl)benzamide], for which the 50% inhibitory concentration (IC50) is 100 to 1000 nM.

`O=C1CCCN1c1ccc(-c2n[nH]c3ncc(-c4ccc5c(c4)CC[C@@H](N4C6COCC4C6)CC5)cc23)cc1` [Example 122, 1-(4-{5-[(7S)-7-{3-oxa-6-azabicyclo[3.1.1]heptan-6-yl}-6,7,8,9-tetrahydro-5H-benzo[7]annulen-2-yl]-2H-pyrazolo[3,4-b]pyridin-3-yl}phenyl)pyrrolidin-2-one]: the IC50 was over 1000 nM.

`COCCNCc1ccc(-c2n[nH]c3ncc(-c4ccc5c(c4)CCC(C)(N4CCC[C@H]4C)CC5)cc23)cc1` (stereo partly drawn) [Example 108, (2-Methoxyethyl)({[4-(5-{7-methyl-7-[(2R)-2-methylpyrrolidin-1-yl]-6,7,8,9-tetrahydro-5H-benzo[7]annulen-2-yl}-1H-pyrazolo[3,4-b]pyridin-3-yl)phenyl]methyl})amine] came in with an IC50 of over 1000 nM.

For the compound `C[C@@H]1CCCN1[C@H]1CCc2cc(-c3cnc4[nH]nc(-c5ccc(S(=O)(=O)C6CC6)cc5)c4c3)cnc2CC1` [Example 102, (2R)-1-[(7S)-3-{3-[4-(Cyclopropanesulfonyl)phenyl]-1H-pyrazolo[3,4-b]pyridin-5-yl}-5H,6H,7H,8H,9H-cyclohepta[b]pyridin-7-yl]-2-methylpyrrolidine], the IC50 is over 1000 nM.

`C[C@@H]1CCCN1C1(C)CCc2ccc(-c3cnc4[nH]nc(-c5ccc(S(N)(=O)=O)cc5)c4c3)cc2CC1` (stereo partly drawn) [Example 95, 4-(5-(7-Methyl-7-((R)-2-methylpyrrolidin-1-yl)-6,7,8,9-tetrahydro-5H-benzo[7]annulen-2-yl)-1H-pyrazolo[3,4-b]pyridin-3-yl)benzenesulfonamide]: the half-inhibitory concentration (IC50) was in the range of 100 to 1000 nM.
